Patent US20260216361A1, “NANOBODY-DRUG CONJUGATES AND METHODS OF PREPARING THEREOF” (Vanderbilt University, priority 2022, published 2026)
Read-outs that look alike come from different tables or passages of the source.

Key:
[1] = Pharmacokinetics of Cy5 dye and nanobody-Cy5 conjugates in healthy mice; type: in vivo, mouse; conditions: 2 mg/kg I.V., healthy female C57BL/6 mice
Experimental: Pharmacokinetics and Ex Vivo Imaging Experiments. Healthy (Balb/c or C57BL/6) and EMT6 tumor bearing (Balb/c) mice were injected with 100 μL of Cy5 (either as free dye or as a nanobody conjugate) at a dose of 2 mg/kg intravenously. Blood draws were taken using heparinized capillary tubes (DWK Life Sciences) at discrete time points up to five days after injection. 1 μL of blood was mixed with 50 μL of PBS, centrifuged, and the diluted plasma was collected for analysis. Prescence of Cy5 was determined by fluorescence intensity using a plate reader, with an excitation wavelength of 645 nm and an emission wavelength of 675 nm. Pharmacokinetic analysis was performed in GraphPad Prism (V10) using either a one-phase decay or two-phase decay, in which the reported half-life is the second phase (elimination). Biodistribution studies were performed by excising and weighing hearts, lungs, livers, spleens, kidneys, and tumors. Tissue were washed in 1× PBS and transferred to the stage of the IVIS Lumina Ill (PerkinElmer). Fluorescence (radiant efficiency) was measured with a maximum value of 1.56×10^10, and a minimum of 8.21×10^8, and areas were drawn for organs to generate average radiant efficiency values (per cm^2) using the Living Image software (version 4.5). […] Images were taken on the IVIS and luminescence was quantified as total radiant flux (p/s) for each set of lungs.

[2] = cited from earlier work
EMT6 tumors = assay: Orthotopic EMT6 breast tumor model; type: in vivo, mouse; conditions: nanobody carriers I.V. 1.25 μg agonist; ICB 100 μg intraperitoneally; Balb/c
Experimental: Evaluation of Nanobodies in Tumor Models. 6-8-week C57BL/6 mice (The Jackson Laboratory) were inoculated with B16.F10, B16.F10-LUC, or B16.F10-OVA models. For EMT6 models, 6-8 week Balb/C female mice (The Jackson Laboratory) were used. Tumors were generated in B16.F10 and B16.F10-OVA models by subcutaneous injection of 5×10^5 cancer cells, suspended in 100 μL of PBS, at the right flank side of the mouse. B16.F10-LUC inoculations were performed by intravenous (I.V.) injection at a volume of 100 μL and using 1×10^6 cancer cells. EMT6 inoculations were orthotopic and placed at the left-side 4th mammary fat pad at a volume of 100 μL and using […]. When the volume of tumors reached ~75-100 mm^3, mice were treated by I.V. injection of nanobodies or free diABZT compound 3 (using 40% PEG400 as an excipient for free diABZI, Sigma), or intraperitoneal (I.P) injection of commercial anti-PD-L1 IgG (Clone BEO101, Bio X Cell) (100 μL per injection). Tumor volume calculations were calculated using Vtumor=L×W2×0.5, in which Vtumor is tumor volume, L is tumor length, and W is tumor width. Tumor volume, total murine mass, and murine well-being were recorded for the duration of the study. The endpoint for maximum tumor volume (i.e. survival) during studies was 1500 mm^3.

With `CC1(C)C(/C=C/C=C/C=C2/N(CCCCCC(=O)NCCC(=O)N3Cc4ccccc4C#Cc4ccccc43)c3ccc(S(=O)(=O)O)cc3C2(C)C)=[N+](CCCS(=O)(=O)[O-])c2ccc(S(=O)(=O)O)cc21` [DBCO-Cy5, reference compound] the elimination half-life [1] was “approximately 5 minutes”.

In the case of `CCn1nc(C)cc1C(=O)Nc1nc2cc(C(N)=O)cc(OC)c2n1C/C=C/Cn1c(NC(=O)c2cc(C)nn2CC)nc2cc(C(N)=O)cc(OCCCN3CCOCC3)c21` [diABZI, reference compound], the half-life ([2]; in vivo) is listed as ~ 90 minutes and the tumor growth (EMT6 tumors) is listed as “did not confer a therapeutic benefit”.

In the case of serum albumin, the half-life ([2]; in mice) is listed as 35 to 40 h.
